Earlier results as cited in publication PMC9884426, “A phase 1 clinical trial of the repurposable acetyllysine mimetic, n-methyl-2-pyrrolidone (NMP), in relapsed or refractory multiple myeloma” (Clinical Epigenetics, 2023).

Parameters: method as in PMID 9029058
Settings: human, cited from earlier work; for elimination half-life: NMP metabolites; for amount found in urine: after a single 100 mg oral dose of NMP

SMILES: CN1C(=O)CC(O)C1=O (centres unmarked) [2-HMSI, 2-hydroxy-N-methylsuccinimide]
- elimination half-life: 17 h
- amount found in urine: 20%

SMILES: CN1C(=O)CCC1=O [MSI, N-methylsuccinimide]
- elimination half-life: 8 h
- amount found in urine: 0.4%

SMILES: CN1C(=O)CCC1O (centres unmarked) [5-HNMP, 5-hydroxy-N-methyl-2-pyrrolidone]
- amount found in urine: 44%
